One block for each compound: values may come before it.
How the values were obtained:
[1] = system: Mus musculus; assay: Inhibition of corn oil-induced plasma triacylglycerol excursion in C57BL/6J mouse at 30 mg/kg administered via oral gavage 30 mins prior to corn oil challenge measured after 6 hrs by oral lipid tolerance test relative to control; assay type: functional
[2] = species: Homo sapiens; assay: Selectivity ratio of IC50 for human MGAT3 to IC50 for human MGAT2
[3] = system: Mus musculus; assay: Decrease in insulin level in high sucrose, very low fat diet fed mouse model of fatty liver at 100 mg/kg relative to control; assay type: functional; set-up: scale not given: the % may be the effect or the level left
[4] = system: Mus musculus; assay: Decrease in insulin level in high sucrose, very low fat diet fed mouse model of fatty liver at 30 mg/kg relative to control; assay type: functional; set-up: scale not given: the % may be the effect or the level left
[5] = biological target: T1, Diacylglycerol O-acyltransferase 2 (Homo sapiens, UniProt Q96PD7); assay: Inhibition of recombinant human DGAT2
T1 sequence (Q96PD7 whole entry): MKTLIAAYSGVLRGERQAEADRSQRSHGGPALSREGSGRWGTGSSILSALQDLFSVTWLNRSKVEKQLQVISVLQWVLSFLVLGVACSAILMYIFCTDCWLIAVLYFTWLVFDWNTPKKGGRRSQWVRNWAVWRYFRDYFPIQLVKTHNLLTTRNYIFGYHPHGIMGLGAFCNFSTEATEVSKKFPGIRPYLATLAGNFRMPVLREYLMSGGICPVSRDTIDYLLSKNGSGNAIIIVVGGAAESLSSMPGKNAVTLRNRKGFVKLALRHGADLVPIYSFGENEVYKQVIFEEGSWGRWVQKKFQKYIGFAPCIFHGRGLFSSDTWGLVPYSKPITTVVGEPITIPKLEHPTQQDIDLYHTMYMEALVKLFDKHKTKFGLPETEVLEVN

[6] = Oral bioavailability in mouse; assay type: ADME, organism-based; settings: in vivo
[7] = Oral bioavailability in rat; assay type: ADME, organism-based; settings: in vivo
[8] = system: Mus musculus; assay: Inhibition of corn oil-induced plasma chylomicron triacylglycerol excursion in C57BL/6J mouse at 30 mg/kg, ip treated 16 hrs prior to liquid meal challenge measured up to 4 hrs by oral meal tolerance test relative to control; assay type: functional
[9] = Ratio of plasma concentration in corn oil-treated C57BL/6J mouse at 30 mg/kg, ip to IC50 for mouse MGAT2; assay type: ADME, organism-based; settings: in vivo
[10] = system: Mus musculus; assay: Anorectic effect in fasting high fat diet fed C57BL/6J mouse assessed as reduction in food intake at 30 mg/kg, po for 37 days followed by high fat diet feeding for 2 hrs relative to control; assay type: functional; set-up: scale not given: the % may be the effect or the level left
[11] = system: Mus musculus; assay: Inhibition of plasma triacylglycerol excursion in mouse at 30 mg/kg relative to control; assay type: functional
[12] = system: Mus musculus; assay: Inhibition of plasma triacylglycerol excursion in mouse at 10 mg/kg relative to control; assay type: functional

Structure (SMILES): O=C(CNCCCCCOc1ccc(C(F)(F)F)cc1)N1CCc2nc(SC3CCC3)n(-c3ccccc3)c(=O)c2C1
inhibition in vivo at 30 mg/kg [1]: 42%

Ratio IC50 [2]: 300 | IC50 [5]: > 30 µM
Structure (SMILES): CC(C)(C)c1cc(C(C)(C)C)nc(N2CCn3c(nnc3-c3ccc(OC(F)(F)F)cc3)C2)n1
Activity [3]: 51% | Activity [4]: 57%

bioavailability [6]: 69% | bioavailability [7]: 74%
Structure (SMILES): CCC1(C)NC(=O)c2cc(S(=O)(=O)Nc3ccc(F)cc3F)cc(Cl)c2NC1=O (stereo not drawn)

Structure (SMILES): O=C(CCNCC1COc2ccccc2O1)N1CCc2nc(SC3CCC3)n(-c3ccccc3)c(=O)c2C1 (stereo not drawn)
inhibition in vivo at 30 mg/kg [1]: 42%

Ratio [9]: 1000
Structure (SMILES): Cn1nc(C(F)(F)F)cc1-c1cnc(N2CCc3cc(S(=O)(=O)Nc4c(F)cc(Cl)cc4F)cc(N4CCCC4=O)c32)nc1 [TP-020]
inhibition in vivo at 30 mg/kg [8]: 58% | Activity [10]: 59%

Structure (SMILES): CC(C)(C)C1CCN(Cc2ccc([C@H](NS(C)(=O)=O)C(F)(F)F)cc2)CC1
inhibition in vivo at 30 mg/kg [11]: 100% | inhibition in vivo at 10 mg/kg [12]: 69%
